# Assay results taken from US20250145589A1, “PYRIDINE DERIVATIVE AND USE THEREOF” (SICHUAN HUIYU PHARMACEUTICAL CO., LTD., priority 2021, published 2025).
# Like-named read-outs stand apart in the source and are kept apart here.
# How the values were obtained:
# PI3Kδ = PI3Kδ (Homo sapiens (Human), UniProt O00329); test: Inhibition of PI3Kδ efficacy assay (ADP-Glo kinase assay); assay type: biochemical; conditions: read-out: PI3Kδ inhibitory activity (IC50)
# In short: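 Luminescent ADP-Glo readout of PI3Kδ: after a 60 min RT reaction with PI/ATP substrate, ATP depletion (40 min) and ADP detection (40 min) steps followed. Compounds tested as eight five-fold serial dilutions; inhibition rates fitted to log(inhibitor) vs. response, variable slope, for IC50.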
# KRAS^G12C-SOS1 = KRAS^G12C-SOS1 (Homo sapiens (Human), UniProt P01116, G12C); test: HTRF KRAS G12C/SOS1 binding assay; conditions: Table 5
# Chain of KRAS^G12C-SOS1 (P01116-2 other isoform, or with tags, fused parts or gaps G12C): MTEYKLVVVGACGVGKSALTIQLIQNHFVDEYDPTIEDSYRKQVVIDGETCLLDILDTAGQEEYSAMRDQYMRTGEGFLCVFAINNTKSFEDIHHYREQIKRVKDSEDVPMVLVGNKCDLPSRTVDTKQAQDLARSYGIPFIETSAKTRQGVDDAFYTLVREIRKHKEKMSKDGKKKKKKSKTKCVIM
# In short: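 Compound was serially diluted five-fold over eight points, with a 2 mM DMSO stock. After anti-tag-Tb3+ and anti-tag-XL665 were added, plates were incubated 3 h at 4 °C and read by HTRF (ex 337 nm, em 620/665 nm ratio). IC50 values come from four-parameter variable-slope fits.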
# [1] = system: NCI-H358 cells (KRAS G12C mutant); test: NCI-H358 cell proliferation inhibition (CellTiter-Glo); assay type: cell-based; conditions: H358 cells (G12C mutation), 3 days, Table 6, read-out: NCI-H358 (IC50)
# [2] = system: MIA PaCa-2 cells (KRAS G12C mutant); test: MIA PaCa-2 cell anti-proliferation (CellTiter-Glo); assay type: cell-based; conditions: MIA Paca-2 cells, 3 days, Table 7, read-out: MIA PaCa-2 (IC50)
# In short: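 Viable-cell luminescence (CellTiter-Glo, ≥30 min at 25 °C) measured after a 3-day, 37 °C exposure to compounds at 9 points, 4-fold spaced, in DMEM containing 10% FBS plus 2.5% horse serum. IC50 derived versus no-inhibitor wells.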
# [3] = system: NCI-H358-AMGR drug-resistant cell line; test: NCI-H358-AMGR drug-resistant cell proliferation inhibitory activity test; assay type: cell-based; conditions: NCI-H358-AMGR drug-resistant cells, 3 days incubation, CellTiter-Glo
# In short: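 Luminescent CellTiter-Glo read-out after 3-day, 37° C compound exposure (8 points, 5-fold series) of AMG510-resistant NCI-H358 cells plated at 4×10^3 per well.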
# Chain of PI3Kδ (O00329 whole entry): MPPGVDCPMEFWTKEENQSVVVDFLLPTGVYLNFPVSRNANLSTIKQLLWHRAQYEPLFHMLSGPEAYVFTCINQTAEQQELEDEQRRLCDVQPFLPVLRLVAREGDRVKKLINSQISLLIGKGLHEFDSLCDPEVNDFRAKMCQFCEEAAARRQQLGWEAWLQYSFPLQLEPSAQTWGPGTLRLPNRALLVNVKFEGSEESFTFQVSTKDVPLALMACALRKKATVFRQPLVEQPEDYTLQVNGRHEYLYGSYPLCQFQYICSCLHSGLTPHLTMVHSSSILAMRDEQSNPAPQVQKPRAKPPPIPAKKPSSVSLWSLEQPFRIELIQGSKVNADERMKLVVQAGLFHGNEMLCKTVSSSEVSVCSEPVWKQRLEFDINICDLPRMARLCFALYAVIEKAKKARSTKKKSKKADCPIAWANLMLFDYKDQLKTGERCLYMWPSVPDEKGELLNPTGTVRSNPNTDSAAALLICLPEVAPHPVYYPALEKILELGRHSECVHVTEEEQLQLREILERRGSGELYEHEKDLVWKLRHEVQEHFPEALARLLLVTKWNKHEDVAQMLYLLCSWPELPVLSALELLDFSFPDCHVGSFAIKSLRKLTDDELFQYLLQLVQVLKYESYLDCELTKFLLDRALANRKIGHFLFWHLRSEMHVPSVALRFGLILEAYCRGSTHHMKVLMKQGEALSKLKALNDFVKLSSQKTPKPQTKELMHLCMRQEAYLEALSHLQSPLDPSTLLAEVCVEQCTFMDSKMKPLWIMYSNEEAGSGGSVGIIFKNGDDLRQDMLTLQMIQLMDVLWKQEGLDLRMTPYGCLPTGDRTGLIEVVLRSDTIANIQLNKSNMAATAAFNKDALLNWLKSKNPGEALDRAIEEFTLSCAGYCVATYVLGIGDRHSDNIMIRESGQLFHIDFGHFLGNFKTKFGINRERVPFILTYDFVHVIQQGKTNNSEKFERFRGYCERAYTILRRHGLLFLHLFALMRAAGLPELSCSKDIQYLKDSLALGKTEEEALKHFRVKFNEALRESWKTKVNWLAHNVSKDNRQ
# Chain of PI3Kδ (P27986 whole entry partner): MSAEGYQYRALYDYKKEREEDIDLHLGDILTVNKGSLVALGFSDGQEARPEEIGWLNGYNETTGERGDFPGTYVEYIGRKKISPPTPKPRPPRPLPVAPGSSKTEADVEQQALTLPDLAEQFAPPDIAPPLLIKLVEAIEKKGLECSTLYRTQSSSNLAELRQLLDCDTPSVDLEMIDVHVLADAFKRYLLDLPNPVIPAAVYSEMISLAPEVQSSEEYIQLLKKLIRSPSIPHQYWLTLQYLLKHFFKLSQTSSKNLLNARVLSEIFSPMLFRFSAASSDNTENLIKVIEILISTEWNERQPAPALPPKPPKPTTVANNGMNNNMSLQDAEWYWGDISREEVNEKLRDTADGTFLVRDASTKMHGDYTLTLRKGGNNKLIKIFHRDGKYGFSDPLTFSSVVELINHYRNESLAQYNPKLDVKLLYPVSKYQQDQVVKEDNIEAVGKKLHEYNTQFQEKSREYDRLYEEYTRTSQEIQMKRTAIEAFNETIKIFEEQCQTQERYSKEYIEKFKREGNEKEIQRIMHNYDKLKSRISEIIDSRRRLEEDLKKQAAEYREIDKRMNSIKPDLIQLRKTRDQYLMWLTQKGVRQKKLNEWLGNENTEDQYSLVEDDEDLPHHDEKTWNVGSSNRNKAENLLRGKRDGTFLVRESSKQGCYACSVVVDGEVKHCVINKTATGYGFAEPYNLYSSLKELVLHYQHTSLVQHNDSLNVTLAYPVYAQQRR
SMILES,IC50 (PI3Kδ; Table 2),IC50 (KRAS^G12C-SOS1),"IC50 ([1]; Homo sapiens, NCI-H358, 72 h)","IC50 ([2]; Homo sapiens, 72 h)",IC50 ([3]; 72 h),IC50 (PI3Kδ; Table 4),IC50 (PI3Kδ; Table 1),IC50 [1],IC50 [2],IC50 [3]
"COc1ncc(-c2ccc3ncnc(N4CCC5(CC4)CN(C(=O)/C=C/C(C)=O)C5)c3c2)cc1NS(=O)(=O)c1c(F)cc(F)cc1F [Example 101, (E)-2,4,6-trifluoro-N-(2-methoxy-5-(4-(2-(4-oxopent-2-enoyl)-2,7-diazaspiro[3.5]nonan-7-yl)quinazolin-6-yl)pyridin-3-yl)benzenesulfonamide]",33.6 nM,198 nM,11.6 nM,11.6 nM,28.3 nM,–,–,–,–,–
"COc1ncc(-c2ccc3ncnc(N4CCC5(CC4)CN(C(=O)/C=C/C(C)=O)C5)c3c2)cc1NS(=O)(=O)c1sc(C)nc1C [Example 178, (E)-N-(2-methoxy-5-(4-(2-(4-oxopent-2-enoyl)-2,7-diazaspiro[3.5]nonan-7-yl)quinazolin-6-yl)pyridin-3-yl)-2,4-dimethyl-thiazole-5-sulfonamide]",–,213 nM,25.3 nM,43.1 nM,66.2 nM,9.2 nM,–,–,–,–
"COc1ncc(-c2ccc3ncnc(N4CCN(C(=O)/C=C/C(C)=O)CC4)c3c2)cc1NS(=O)(=O)c1sc(C)nc1C [Example 160, (E)-N-(2-methoxy-5-(4-(4-(4-oxopent-2-enoyl)piperazin-1-yl)quinazolin-6-yl)pyridin-3-yl)-2,4-dimethylthiazole-5-sulfonamide]",–,169 nM,13 nM,48.4 nM,69.5 nM,15.2 nM,–,–,–,–
"COc1ncc(-c2ccc3ncnc(N4CCN(C(=O)/C=C/C(C)=O)CC4)c3n2)cc1NS(=O)(=O)c1cccc(F)c1F [Example 218, (E)-2,3-difluoro-N-(2-methoxy-5-(4-(4-(4-oxopent-2-enoyl)piperazin-1-yl)pyrido[3,2-d]pyrimidin-6-yl)pyridin-3-yl) benzene-sulfonamide]",–,292 nM,25.6 nM,21.5 nM,13.5 nM,10.8 nM,–,–,–,–
"COc1ncc(-c2ccc3ncnc(C4CCN(C(=O)/C=C/C(C)=O)CC4)c3n2)cc1NS(=O)(=O)c1sc(C)nc1C [Example 230, (E)-N-(2-methoxy-5-(4-(1-(4-oxopent-2-enoyl)piperidin-4-yl)pyrido[3,2-d]pyrimidin-6-yl)pyridin-3-yl)-2,4-dimethylthiazol-5-sulfonamide]",–,493 nM,6.9 nM,24.2 nM,26.7 nM,4.7 nM,–,–,–,–
"COc1ncc(-c2ccc3ncnc(C4CCN(C(=O)/C=C/C(C)=O)CC4)c3c2)cc1NS(=O)(=O)c1c(F)cccc1Cl [Example 206, (E)-2-chloro-6-fluoro-N-(2-methoxy-5-(4-(1-(4-oxopent-2-enoyl)piperidin-4-yl)quinazolin-6-yl)pyridin-3-yl) benzenesulfonamide]",–,188 nM,8 nM,21 nM,9.5 nM,15 nM,–,–,–,–
"COc1ncc(-c2ccc3ncnc(N4CCN(C(=O)/C=C/C(C)=O)CC4)c3c2)cc1NS(=O)(=O)c1ccc(F)cc1F [Example 6, (E)-2,4-difluoro-N-(2-methoxy-5-(4-(4-(4-oxopent-2-enoyl)piperazin-1-yl)quinazoline-6-yl)pyridin-3-yl)benzenesulfonamide]",–,323 nM,18 nM,17.1 nM,15.6 nM,–,10.9 nM,–,–,–
COc1ncc(-c2ccc3ncnc(N4CCN(C(=O)/C=C/C(C)=O)CC4)c3c2)cc1NS(=O)(=O)c1ccc(C)cc1F [Example 111],23.2 nM,364 nM,–,–,–,–,–,15.8 nM,44.4 nM,118 nM
"COc1ncc(-c2ccc3ncnc(N4CCC5(CC4)CN(C(=O)/C=C/C(C)=O)C5)c3c2)cc1NS(=O)(=O)c1ccccc1F [Example 150, (E)-2-fluoro-N-(2-methoxy-5-(4-(2-(4-oxopent-2-enoyl)-2,7-diazaspiro[3.5]nonan-7-yl)quinazolin-6-yl)pyridin-3-yl)benzenesulfonamide]",–,236 nM,16.4 nM,58.5 nM,112 nM,10.7 nM,–,–,–,–
"COc1ncc(-c2ccc3ncnc(N4CC5CCC(C4)N5C(=O)/C=C/C(C)=O)c3c2)cc1NS(=O)(=O)c1sc(C)nc1C [Example 176, N-(2-methoxy-5-(4-(8-((E)-4-oxopent-2-enoyl)-3,8-diazabicyclo [3.2.1]octan-3-yl)quinazolin-6-yl)pyridin-3-yl)-2,4-dimethyl-thiazole-5-sulfonamide]",–,113 nM,27 nM,29.3 nM,76.1 nM,13.9 nM,–,–,–,–
"COc1ncc(-c2ccc3ncnc(C4=CCN(C(=O)/C=C/C(C)=O)CC4)c3c2)cc1NS(=O)(=O)c1c(F)cccc1F [Example 201, (E)-2,6-difluoro-N-(2-methoxy-5-(4-(1-(4-oxopent-2-enoyl)-1,2,3,6-tetrahydropyridin-4-yl)quinazolin-6-yl)pyridin-3-yl)benzenesulfonamide]",–,140 nM,7.2 nM,31.9 nM,5.3 nM,11.8 nM,–,–,–,–
"COc1ncc(-c2ccc3ncnc(N4CCN(C(=O)/C=C/C(C)=O)[C@H](C)C4)c3n2)cc1NS(=O)(=O)c1ccccc1F [Example 228, (R,E)-2-fluoro-N-(2-methoxy-5-(4-(3-methyl-4-(4-oxopent-2-enoyl)piperazin-1-yl)pyrido[3,2-d]pyrimidin-6-yl)pyridin-3-yl)benzene-sulfonamide]",–,294 nM,13.2 nM,34 nM,40.3 nM,15.9 nM,–,–,–,–
"COc1ncc(-c2ccc3ncnc(C4CCN(C(=O)/C=C/C(C)=O)CC4)c3n2)cc1NS(=O)(=O)c1c(F)cccc1F [Example 233, (E)-2,6-difluoro-N-(2-methoxy-5-(4-(1-(4-oxopent-2-enoyl)piperidin-4-yl)pyrido[3,2-d]pyrimidin-6-yl)pyridin-3-yl)benzenesulfonamide]",–,204 nM,5 nM,14.2 nM,52 nM,31.3 nM,–,–,–,–
"COc1ncc(-c2ccc3ncnc(N4CCN(C(=O)/C=C/C(C)=O)CC4)c3n2)cc1NS(=O)(=O)c1ccncc1F [Example 220, (E)-3-fluoro-N-(2-methoxy-5-(4-(4-(4-oxopent-2-enoyl)piperazin-1-yl)pyrido[3,2-d]pyrimidin-6-yl)pyridin-3-yl) pyridine-4-sulfonamide]",–,274 nM,61.5 nM,58.5 nM,207 nM,11.4 nM,–,–,–,–
